Measured values reported in patent US10195147B1, “Dry powder compositions with magnesium stearate” (OTITOPIC INC., priority 2017, dated 2019).
Values joined by “and” are separate entries in the source; they are usually repeats but may differ in a detail not shown here. Identical values can stand only once.

How the values were obtained:
Format in all cases: physicochemical
[1] = Particle size distribution by Spraytec using low resistance device; conditions: 90 L/min, 2.7 second actuation, 5 tests
Experimental: Particle size distribution of ASA/MgST dry powder composition with 0.5%, 1%, 5%, and 10% w/w MgST, spray-dried Aspirin 85%/Leucine 15% Formulation (036 or 36)>Aspirin 95%/Leucine 5% Formulation (046 or 46), and micronized ASA were measured by Spraytec using low resistance device, at 90 L/min flow rate with 2.7 second actuation time with a step of device/mouthpiece/USP/throat/IC/DUSA, and 5 tests for each composition (Table 5E).

[2] = NGI data of the NGI v. Spraytec comparison; conditions: Table 5F
[3] = Colloid-probe atomic force microscopy, force of cohesion; conditions: five drug probes per formulation against smooth crystalline aspirin surface
Excerpt: Colloid-probe atomic force microscopy studies (AFM) was used to measure the cohesive surface interfacial forces (FIG. 6). Five individual particles from each of powder formulation was attached to tipless cantilevers. These were designated as drug probes, which were then interacted with a smooth surface of crystalline aspirin. In this way, it was possible to measure the force of cohesion of the particles of the different formulations (FIG. 6), which followed the following rank order: […]

% V < 5 μm [1]: 54.7 (3.15) %
% V < 10 μm [1]: 88.99 (2.05) %
Dv(10) [1]: 1.9 (0.08) μm
Dv(50) [1]: 4.63 (0.24) μm and 4.62 (0.24) μm
Dv(90) [1]: 10.32 (0.65) μm
NGI FPF [2]: 20.71%
NGI MMAD [2]: 4.86 μm
SMILES: CC(=O)Oc1ccccc1C(=O)O [Micronized ASA, acetylsalicylic acid]
force of cohesion, rank order [3]: >ASA co-micronised with 0.5% magnesium stearate
